Experimental data from patent publication US9981983B2, “Thienopyranones as kinase inhibitors” (SignalRx Pharmaceuticals, Inc., priority 2008, dated 2018).

Assays:
Assay type in all cases: cell-based
BT-474 cells = assay: Cellular proliferation (Example B method), BT-474; conditions: Homo sapiens; BT-474, breast cancer
Protocol: PC3 cells were obtained from the American Type Culture Collection (ATCC, Manassas, Va., Cat.# CRL-1435) Two thousand cells from the prostate cancer line PC3 were placed in 50 μL of complete RPMI 1640 media (Invitrogen, Carlsbad, Calif., Cat.#22400-105) with 10% fetal bovine serum (Invitrogen, Carlsbad, Calif., Cat.#10438-026) into each well of 96 well cell culture plates in a hexaplicate sampling pattern. A 50 μL aliquot of test compound (prepared from stock test compounds in DMSO diluted into media) was added to the appropriate well such that the final concentrations of test compound were 200, 40, 8, 1.6, 0.32, 0.064, 0.0128, 0.00256, and 0 μM and the final DMSO concentration was less than or equal to 0.2%.
The plates were incubated for 72 hours 37° C. in an atmosphere of 5% CO2. At the end of this time a 10 μL aliquot of WST solution (Roche Applied Science, Mannheim, Germany) was added into each of the wells. Cells were exposed to the WST solution for 4 hours. A SpectraMax Plus spectrophotometric plate reader (Molecular Devices, Sunnydale, Calif.) was then used to measure the optical density at 450 nm (OD450 nm). Sigmoidal curves were drawn for the dose responses and IC50 values were calculated using the software package GraphPad Prism4 (GraphPad Software, Inc., San Diego, Calif.).
Several other cancer cell lines were obtained from ATCC and grown according to their recommendations and treated with test compounds to obtain the concentration of test compound that inhibited the cellular proliferation by 50% of no-treatment controls. These IC50 values (μM) are listed in Table 7 below obtained by the methods described in Example B: […]

MCF7 breast cancer cells = assay: Mammosphere cancer stem cell inhibition assay; conditions: first experiment; for number of mammospheres: control 38±4
Protocol: A mammosphere cancer stem cell inhibition assay was set up using literature methods (T. M. Phillips et al. J. Natl. Cancer I. 2006, 98, 1777-1785, “Mammalian target of rapamycin contributes to the acquired apoptotic resistance of human mesothelioma multicellular spheroids”) using a subset of MCF7 breast cancer cells that posses the ability to evade anchorage independent apoptosis. Commercially available MCF7 breast cancer cells were cultured in MEM supplemented with 0.01 mg/mL of bovine insulin and 10% FBS at 37° C. in humidified atmosphere (5% CO2). Floating cells in the 2-day cultures were collected, washed, and resuspended in DMEM-F12 (50:50) supplemented with 0.4% BSA, 5 μg/mL bovine insulin, 20 ng/mL bFGF, and 10 ng/mL EGF. Cells were then passed through a […] sieve to remove any cell clusters and adjusted to a density of 10,000 cells/mL. Approximately 500 cells were plated in quadruplicate in a sterile poly-HEMA-treated 96-well plate. Cells were then treated with either control or test solutions consisting of the kinase inhibitor Lapatinib (1 μM), Cpd 28 (1 or 10 μM), Cpd 55 (1 or 10 μM), The numbers of mammospheres (clusters of cells numbering more than 4 or 5 per cluster) were then counted after 5-7 days.

OVCAR3 (Ovary) = assay: Cell proliferation MTS assay, OVCAR3; conditions: Homo sapiens, OVCAR-3, 72 hours
Protocol: (§1) All cell lines were obtained from ATCC and cultured and plated according to ATCC recommendations. Cells were cultured in complete culture media containing 10% heat-inactivated fetal bovine serum (FBS, Mediatech, Inc.). For adherent cell lines, once cells reached 70% confluency, they were trypsinized and resuspended in phenol red free RPMI media (Mediatech, Inc.) plus 10% heat-inactivated FBS (assay buffer) and 100 μL aliquots were plated into each well of 96-well microtiter plates at a final density of 1,000-2,000 cells/well. Cells were incubated overnight at 37° C. in 5% CO2, and treated with test compounds on the next day. For suspension cell lines, cells were resuspended in assay buffer, plated into 96-well microtiter plates at a density of 10^4-10^5 cells/well/100 μL, and treatment was started on the same day. Cells were treated with vehicle (DMSO) and test compounds for 72 hours at concentration of 100, 70, 40, 20, 10, 5, 2.5, 1.25, 0.5 and 0.2 μM in four replicates at 37° C. in 5% CO2.

[1] = Cell proliferation MTS assay, Hela; conditions: Homo sapiens, 72 hours, read-out: IC50 Hela (Colon)
Protocol: as §1

pAKT in H1299 cells = assay: pAKT status DM50, H1299; conditions: Homo sapiens, NCI-H1299; H1299, non-small cell lung cancer
Protocol: PC3 cells were obtained from the American Type Culture Collection (ATCC, Manassas, Va., Cat.# CRL-1435). Two million cells from the prostate cancer line PC3 were placed into 6 cm culture dishes and allowed to grow in complete RPMI 1640 media (Invitrogen, Carlsbad, Calif., Cat.#22400-105) with 10% fetal bovine serum (Invitrogen, Carlsbad, Calif., Cat.#10438-026). After this time period the cells were serum starved for 5 hours followed by application of the test compound. Test compound was added as a DMSO (dimethyl sulfoxide) solution such that the final DMSO concentration in the cell media was less than or equal to 0.2% by volume After 30 minutes of exposure the growth factor stimulant, human IGF-1 (PeproTech, Inc., Rocky Hill, N.J., Cat.#100-11), was added to a final concentration of 0.1 μg/ml in each well. After 30 minutes of IGF-1 exposure, cells were removed from the media and cell lysates were prepared using RIPA Lysis buffer (Upstate, Lake Placid, N.Y., Cat.#20-188), keeping on ice. The pAKT serine 473 level was measured in duplicate samples of the cell lysates using commercially available assays such as the Pathscan® Sandwich ELISA kit for Ser473 pAKT (Cell Signaling, Danvers, Mass., Cat.#7160). A SpectraMax Plus spectrophotometric plate reader (Molecular Devices, Sunnydale, Calif.) was used to measure the optical density signal for pAKT at 450 nm (OD450 nm). The pAKT OD450 nm readings were normalized by total protein amount in the cell lysates determined by standard methods.
Concentrations of test compounds required to inhibit IGF stimulated pAKT levels to 50% of maximum levels in PC3 cells (termed DM50 for decreased maximum 50%) were calculated by inputting the dose responses in the software package GraphPad Prism4 (GraphPad Software, Inc., San Diego, Calif.).
Several other cancer cell lines were obtained from ATCC and grown according to the supplier's recommendations and treated with test compounds. DM50 values listed in Table 6 below were obtained by the methods described in Example A: […]

In the case of `O=c1cc(N2CCOCC2)oc2c(-c3ccc4c(c3)OCCO4)csc12` [Compound 28, 3-(2,3-dihydrobenzo[b][1,4]dioxin-6-yl)-5-morpholino-7H-thieno[3,2-b]pyran-7-one], the IC50 (BT-474 cells) is reported as 3.77 µM, the “inhibition of mammosphere production versus control” value (MCF7 breast cancer cells; 1 μM) is reported as “approximately 60%” and the number of mammospheres (MCF7 breast cancer cells; 1 μM) is reported as 15±2 mammospheres. The “inhibition of mammosphere production versus control” value (MCF7 breast cancer cells; 10 μM) was “approximately 88%”, the number of mammospheres (MCF7 breast cancer cells; 10 μM) was 5±1 mammospheres and the IC50 (OVCAR3 (Ovary)) was 1.24 µM. It also gave an IC50 [1] of 2.1 µM and an IC50 (pAKT in H1299 cells) of 0.886 µM.
